Some test systems named below: HOP-62 NSCLC; SNB-75 CNS; COLO 205 colon; ACHN renal; 786-0 renal; UACC-257 melanoma; NCI-H522 lung; U251 CNS; HCT-15 colon; CCRF-CEM leukemia.
What all share (experiment): NCI-60 cell line screen, 48 h

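Tested at 5 concentrations; 48 h exposure; 96-well plates; endpoints linearly interpolated, else capped at highest concentration. GI50 = concentration required for 50% inhibition of growth. TGI is the concentration that stops growth completely.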 Where only a bound is given, the exact number is not on record here.

On to `Cc1ccc(S(=O)(=O)NCCNC2=CC(=O)c3nc4ccccc4c4ccnc2c34)cc1`, for which the GI50 was 20.6 µM with HOP-62 NSCLC; 18.3 µM in the assay on SNB-75 CNS; 14.3 µM in the assay on COLO 205 colon; 22.3 µM in the assay on ACHN renal; 20.6 µM in the assay with 786-0 renal; 19.5 µM in the assay on UACC-257 melanoma. In addition, the GI50 in the assay with NCI-H522 lung is 15 µM; with U251 CNS, 24.7 µM; in the assay on HCT-15 colon, 16.2 µM. For the same compound, the TGI in the assay with HOP-62 NSCLC is 61.3 µM; in the assay with SNB-75 CNS it was 41.3 µM; in the assay on COLO 205 colon, 52.2 µM; with ACHN renal, 97 µM; in the assay on 786-0 renal it was 50.2 µM; in the assay with UACC-257 melanoma it was 54.3 µM. Besides, the TGI was 37.3 µM in the assay on NCI-H522 lung, 63.9 µM with U251 CNS and 48.1 µM with HCT-15 colon.

Take `O=C([CH-]C(=O)c1ccccc1)c1ccccc1.O=C([CH-]C(=O)c1ccccc1)c1ccccc1.O=C([CH-]C(=O)c1ccccc1)c1ccccc1.[Nd+3].[OH3+]`: the GI50 in the assay with HOP-62 NSCLC is 2.62 µM; in the assay on SNB-75 CNS it was 2.91 µM; with COLO 205 colon, 10.6 µM; in the assay on ACHN renal, 5.93 µM; in the assay with 786-0 renal it was 5.06 µM; with UACC-257 melanoma it was 7.84 µM. Besides, the GI50 was 2.06 µM with NCI-H522 lung, 9.22 µM in the assay on U251 CNS and 8.7 µM with HCT-15 colon. Moreover, the TGI with HOP-62 NSCLC was 9.96 µM; in the assay on SNB-75 CNS it was 7.23 µM; with COLO 205 colon, 25.6 µM; in the assay on ACHN renal it was 21.2 µM; in the assay with 786-0 renal, 18.5 µM; in the assay on UACC-257 melanoma it was 24.6 µM. Moreover, the results for the TGI with NCI-H522 lung, in the assay with U251 CNS and in the assay on HCT-15 colon were 7.28 µM, above 100 µM and 53.6 µM, respectively.

On to `CC1(C)C(=O)C(C)(C)C1=NN`, for which the TGI in the assay with HOP-62 NSCLC, with SNB-75 CNS, in the assay with COLO 205 colon, in the assay with ACHN renal, with 786-0 renal and with UACC-257 melanoma was above 100 µM each time. The TGI in the assay on NCI-H522 lung, in the assay on U251 CNS and in the assay on HCT-15 colon was above 100 µM each time.

Take `Clc1ccc(Cc2nc3ccccc3s2)c(Cl)c1`: the TGI in the assay with HOP-62 NSCLC amounted to 32.9 µM; in the assay with CCRF-CEM leukemia it was 22.7 µM; in the assay on SNB-75 CNS, 34.5 µM; with COLO 205 colon it was 31.5 µM; in the assay on ACHN renal it was 34.9 µM; in the assay with 786-0 renal, 27.8 µM. Moreover, the TGI was found to be 34.8 µM in the assay with UACC-257 melanoma, 30.9 µM in the assay on NCI-H522 lung and 36.5 µM with HCT-15 colon.

For the compound `O=C(O)COc1ccc(O)c2c1C(=O)CCCC2=O`, the TGI in the assay on HOP-62 NSCLC, in the assay with CCRF-CEM leukemia, in the assay on COLO 205 colon, with ACHN renal, in the assay on 786-0 renal and in the assay with UACC-257 melanoma was above 100 µM in each case. In addition, the TGI in the assay on NCI-H522 lung, with U251 CNS and with HCT-15 colon was above 100 µM in each case.

Take `O=C(O)[C@@H]1[C@H](C(=O)O)[C@H](C(=O)O)C[C@@H]1C(=O)O`: the TGI in the assay on HOP-62 NSCLC, with SNB-75 CNS, in the assay on COLO 205 colon, in the assay on ACHN renal, in the assay with 786-0 renal and in the assay on UACC-257 melanoma was above 100 µM in each case. For the same compound, the TGI with NCI-H522 lung, in the assay with U251 CNS and in the assay with HCT-15 colon was above 100 µM in each case.

With `C/C(=N\O)c1cccc(Nc2cc(-n3ccnn3)c3ccccc3n2)c1`, the GI50 in the assay with HOP-62 NSCLC was 15.2 µM; in the assay with CCRF-CEM leukemia, 11.7 µM; in the assay on COLO 205 colon, 22.2 µM; in the assay on ACHN renal, 15 µM; with 786-0 renal, 18.3 µM; with UACC-257 melanoma, 12.9 µM. Moreover, the GI50 in the assay on NCI-H522 lung was 13.2 µM; with U251 CNS it was 19.9 µM; in the assay on HCT-15 colon, 13.5 µM. For the same compound, the TGI stood at 30.7 µM in the assay with HOP-62 NSCLC; 31.3 µM in the assay with CCRF-CEM leukemia; 59 µM with COLO 205 colon; 34 µM with ACHN renal; 51.5 µM in the assay with 786-0 renal; 27.9 µM in the assay with UACC-257 melanoma. Further, the TGI in the assay with NCI-H522 lung was 28.9 µM; with U251 CNS it was 62.2 µM; in the assay with HCT-15 colon, 27.4 µM.

In the case of `O=C(Nc1cccs1)c1c(O)[nH]c(=S)[nH]c1=O`, the TGI in the assay with HOP-62 NSCLC, with CCRF-CEM leukemia, in the assay on COLO 205 colon, in the assay with ACHN renal, with 786-0 renal and in the assay with UACC-257 melanoma was above 100 µM each time. The TGI with NCI-H522 lung, in the assay on U251 CNS and with HCT-15 colon was above 100 µM each time.

As to `O=C(c1ccc2ccccc2c1)c1c(C(F)(F)F)n([O-])c2cc(F)c(F)cc2[n+]1=O`, the GI50 with HOP-62 NSCLC was 5.02 µM; in the assay on CCRF-CEM leukemia, 1.33 µM; in the assay with SNB-75 CNS it was 4.29 µM; in the assay on ACHN renal, 2.03 µM; in the assay with 786-0 renal, 1.74 µM; in the assay on UACC-257 melanoma it was 2.53 µM. Also, in the assay on HCT-15 colon, the GI50 was 1.76 µM. The TGI worked out at 16.8 µM in the assay on HOP-62 NSCLC; 3.63 µM with CCRF-CEM leukemia; 15 µM in the assay on SNB-75 CNS; 4.16 µM in the assay with ACHN renal; 3.23 µM with 786-0 renal; 6.45 µM in the assay with UACC-257 melanoma. This compound registered a TGI in the assay with HCT-15 colon of 4.37 µM.

Regarding `NC1CCCCC1.[O]=[Ge].[O]=[Ge].[O]=[Ge][OH].[O]=[Ge][OH]`, the TGI with HOP-62 NSCLC, in the assay with CCRF-CEM leukemia, with SNB-75 CNS, with ACHN renal, with 786-0 renal and in the assay on UACC-257 melanoma was above 100 µM in each case. The TGI in the assay with HCT-15 colon is above 100 µM. The GI50 with ACHN renal and with 786-0 renal was above 100 µM each time.

For the compound `CCCn1c(SC)nc(COC(=O)NC)c1COC(=O)NC`, the TGI in the assay on HOP-62 NSCLC, with CCRF-CEM leukemia, in the assay on SNB-75 CNS, in the assay on COLO 205 colon, in the assay with ACHN renal and in the assay on 786-0 renal was above 100 µM each time. Besides, the TGI with UACC-257 melanoma, in the assay on NCI-H522 lung and in the assay on HCT-15 colon was above 100 µM throughout.
